Converted amounts (≈) assume the structure as drawn.
Assays:
[1] = system: Mycobacterium tuberculosis; experiment: microbe, parasite or virus in culture; details: H37Rv ATCC 27294, 168 h
Description: Antimycobacterial activity against Mycobacterium tuberculosis H37Rv ATCC 27294 after 7 days by REMA method

[2] = Cytotoxicity against human HepG2 cells after 24 hrs by MTT assay; assay type: cell-based
[3] = Selectivity index, ratio of CC50 for human HepG2 cells to MIC90 for Mycobacterium tuberculosis H37Rv ATCC 27294; assay type: toxicity, cell-based; details: read-out: Selectivity Index
[4] = system: Mycobacterium tuberculosis; experiment: microbe, parasite or virus in culture; details: 18b, 168 h
Description: Antimycobacterial activity against non-replicating streptomycin starved Mycobacterium tuberculosis 18b after 7 days by REMA method

[5] = Solubility of compound in simulated gastric fluid; assay type: ADME, Stomach
[6] = Half life in Swiss mouse at 10 mg/kg, po by LC-MS/MS analysis; assay type: ADME, organism-based; details: in vivo
[7] = Solubility of compound in simulated intestinal fluid; assay type: ADME
[8] = Cmax in Swiss mouse at 10 mg/kg, po by LC-MS/MS analysis; assay type: ADME, organism-based; design: dose 10 mg/kg, route oral; details: in vivo
[9] = AUC(0 to t) in Swiss mouse at 10 mg/kg, po by LC-MS/MS analysis; assay type: ADME, organism-based; details: in vivo
[10] = Solubility of compound in PBS buffer; assay type: physicochemical
[11] = Tmax in Swiss mouse at 10 mg/kg, po by LC-MS/MS analysis; assay type: ADME, organism-based; details: in vivo
[12] = Solubility of compound in water; assay type: physicochemical

SMILES | MIC90 [1] [µM] | CC50 at 24 h [2] [µM] | selectivity ratio [3] | MIC90 [4] [µM] | other results
O=[N+]([O-])c1ccc(CN2CCN(c3ccc(F)cc3)CC2)o1 | 3.27 (≈ 0.998 µg/mL) | – | – | – | –
O=[N+]([O-])c1ccc(CN2CCN(c3ccc(Cl)cc3)CC2)o1 | 0.37 (≈ 0.119 µg/mL) | > 58 | > 11600 | 1.4 (≈ 0.45 µg/mL) | –
Cc1cccc(N2CCN(Cc3ccc([N+](=O)[O-])o3)CC2)c1C | 12.7 (≈ 4 µg/mL) | – | – | – | –
O=[N+]([O-])c1ccc(CN2CCN(c3ccccc3)CC2)o1 | 0.2 (≈ 0.0575 µg/mL) | – | – | – | –
COc1ccc(S(=O)(=O)N2CCN(Cc3ccc([N+](=O)[O-])o3)CC2)cc1 | 0.31 (≈ 0.118 µg/mL) | – | – | – | –
c1ccc(N2CCN(Cc3ccco3)CC2)cc1 | > 16.5 | – | – | – | –
O=[N+]([O-])c1ccc(CN2CCN(S(=O)(=O)c3ccccc3)CC2)o1 | 0.17 (≈ 0.0597 µg/mL) | > 56 | > 329 | > 22.7 | –
O=[N+]([O-])c1ccc(CN2CCC(c3ccccc3)CC2)o1 | 0.59 (≈ 0.169 µg/mL) | – | – | – | –
COc1cccc(N2CCN(Cc3ccc([N+](=O)[O-])o3)CC2)c1 | 0.047 (≈ 0.0149 µg/mL) | > 63 | > 1580 | 2.11 (≈ 0.67 µg/mL) | –
CS(=O)(=O)N1CCN(Cc2ccc([N+](=O)[O-])o2)CC1 | 23.1 (≈ 6.67 µg/mL) | – | – | – | –
O=[N+]([O-])c1ccc(CN2CCN(S(=O)(=O)c3ccc(F)cc3)CC2)o1 | 0.08 (≈ 0.0295 µg/mL) | > 54 | > 675 | > 21.6 | solubility [5]: 2170 µM (≈ 801 µg/mL); half-life [6]: 87.6 min; solubility [7]: 13.5 µM (≈ 4.99 µg/mL); Cmax [8]: 3.26 µM; AUC(0-t) [9]: 4.22 µM·h; solubility [10]: 54.1 µM (≈ 20 µg/mL); Tmax [11]: 15 min; solubility [12]: 108 µM (≈ 40 µg/mL)
Cc1ccc(S(=O)(=O)N2CCN(Cc3ccc([N+](=O)[O-])o3)CC2)cc1 | 0.16 (≈ 0.0585 µg/mL) | > 54 | > 338 | > 21.9 | –
CC(=O)c1ccc(N2CCN(Cc3ccc([N+](=O)[O-])o3)CC2)cc1 | 0.3 (≈ 0.0988 µg/mL) | – | – | – | –
COc1cccc(S(=O)(=O)N2CCN(Cc3ccc([N+](=O)[O-])o3)CC2)c1 | 1.3 (≈ 0.496 µg/mL) | – | – | – | –
O=[N+]([O-])c1ccc(CN2CCN(S(=O)(=O)c3ccc(C(F)(F)F)cc3)CC2)o1 | 0.5 (≈ 0.21 µg/mL) | – | – | – | –
CC(=O)c1ccc(N2CCN(Cc3ccc([N+](=O)[O-])s3)CC2)cc1 | > 11.5 | – | – | – | –

SMILES | MIC90 [1] [µM] | CC50 at 24 h [2] [µM] | selectivity ratio [3] | MIC90 [4] [µM] | other results
O=[N+]([O-])c1ccc(CN2CCN(c3cccc(Cl)c3)CC2)o1 | 0.37 (≈ 0.119 µg/mL) | – | – | – | –
O=[N+]([O-])c1ccc(CN2CCN(c3ccc(N4CCOCC4)cc3)CC2)o1 | 0.02 (≈ 0.00745 µg/mL) | > 53 | > 2650 | 0.56 (≈ 0.209 µg/mL) | half-life [6]: 52.8 min; Cmax [8]: 5.34 µM; AUC(0-t) [9]: 4.51 µM·h; Tmax [11]: 15 min; solubility [12]: 2.68 µM (≈ 0.998 µg/mL)
O=[N+]([O-])c1ccc(CN2CCN(c3ccccc3)CC2)s1 | > 13.1 | – | – | – | –
COc1ccccc1N1CCN(Cc2ccc([N+](=O)[O-])o2)CC1 | 25.2 (≈ 8 µg/mL) | – | – | – | –
CC(C)(C)c1ccc(N2CCN(Cc3ccc([N+](=O)[O-])o3)CC2)cc1 | 0.0072 (≈ 0.00247 µg/mL) | > 63 | > 700 | 12.6 (≈ 4.33 µg/mL) | solubility [5]: 1170 µM (≈ 400 µg/mL); half-life [6]: 242 min; solubility [7]: 2.9 µM (≈ 0.996 µg/mL); Cmax [8]: 2.35 µM; AUC(0-t) [9]: 2.99 µM·h; solubility [10]: 58.2 µM (≈ 20 µg/mL); Tmax [11]: 15 min; solubility [12]: 116 µM (≈ 40 µg/mL)
O=[N+]([O-])c1ccc(CN2CCN(c3ccccc3F)CC2)o1 | 6.55 (≈ 2 µg/mL) | – | – | – | –
Cc1ccc(N2CCN(Cc3ccc([N+](=O)[O-])o3)CC2)cc1 | 13.2 (≈ 3.98 µg/mL) | – | – | – | –
O=[N+]([O-])c1ccc(CN2CCN(c3ccc(Cl)cc3)CC2)s1 | > 11.8 | – | – | – | –
O=[N+]([O-])c1ccc(CN2CCN(c3cccc(C(F)(F)F)c3)CC2)o1 | 0.33 (≈ 0.117 µg/mL) | – | – | – | –
COc1ccc(N2CCN(Cc3ccc([N+](=O)[O-])o3)CC2)cc1 | 0.12 (≈ 0.0381 µg/mL) | – | – | – | –
O=[N+]([O-])c1ccc(S(=O)(=O)N2CCN(Cc3ccc([N+](=O)[O-])o3)CC2)cc1 | 0.15 (≈ 0.0595 µg/mL) | > 50 | > 333 | 20.1 (≈ 7.97 µg/mL) | –
N#Cc1cccc(N2CCN(Cc3ccc([N+](=O)[O-])o3)CC2)c1 | 0.019 (≈ 0.00593 µg/mL) | > 64 | > 3200 | 1.34 (≈ 0.419 µg/mL) | solubility [5]: 2560 µM (≈ 801 µg/mL); solubility [7]: 32 µM (≈ 9.99 µg/mL); solubility [10]: 256 µM (≈ 80 µg/mL); solubility [12]: 256 µM (≈ 80 µg/mL)
O=[N+]([O-])c1ccc(CN2CCOCC2)o1 | 31.4 (≈ 6.66 µg/mL) | – | – | – | –
CC(C)(C)OC(=O)N1CCN(Cc2ccc([N+](=O)[O-])o2)CC1 | 0.048 (≈ 0.0149 µg/mL) | > 64 | > 1600 | 1.6 (≈ 0.498 µg/mL) | solubility [5]: 2570 µM (≈ 800 µg/mL); half-life [6]: 101 min; solubility [7]: 2570 µM (≈ 800 µg/mL); Cmax [8]: 3.81 µM; AUC(0-t) [9]: 2.71 µM·h; solubility [10]: 2570 µM (≈ 800 µg/mL); Tmax [11]: 15 min; solubility [12]: 1290 µM (≈ 400 µg/mL)
COc1c(N2CCNC(C)C2)c(F)cc2c(=O)c(C(=O)O)cn(C3CC3)c12 (stereo unspecified) [GATIFLOXACIN] | – | – | – | 2.66 (≈ 0.999 µg/mL) | –
CO[C@H]1/C=C/O[C@@]2(C)Oc3c(C)c(O)c4c(O)c(c(/C=N/N5CCN(C)CC5)c(O)c4c3C2=O)NC(=O)/C(C)=C\C=C\[C@H](C)[C@H](O)[C@@H](C)[C@@H](O)[C@@H](C)[C@H](OC(C)=O)[C@@H]1C [RIFAMPIN] | 0.07 (≈ 0.0576 µg/mL) | – | – | 2.4 (≈ 1.98 µg/mL) | –
